Here are results for 7 molecules from ChEMBL document CHEMBL1201862, “PubChem BioAssay data set” (2004).

Assay [1] concerns the target Dual specificity mitogen-activated protein kinase kinase 2 (Homo sapiens, UniProt P36507). Kind of assay: Navigating the Kinome. Panel member name: MAP2K2. It counts as functional.
Another assay has as its target T1, Hexokinase-1 (Homo sapiens, UniProt P19367).
T1 sequence (P19367 whole entry): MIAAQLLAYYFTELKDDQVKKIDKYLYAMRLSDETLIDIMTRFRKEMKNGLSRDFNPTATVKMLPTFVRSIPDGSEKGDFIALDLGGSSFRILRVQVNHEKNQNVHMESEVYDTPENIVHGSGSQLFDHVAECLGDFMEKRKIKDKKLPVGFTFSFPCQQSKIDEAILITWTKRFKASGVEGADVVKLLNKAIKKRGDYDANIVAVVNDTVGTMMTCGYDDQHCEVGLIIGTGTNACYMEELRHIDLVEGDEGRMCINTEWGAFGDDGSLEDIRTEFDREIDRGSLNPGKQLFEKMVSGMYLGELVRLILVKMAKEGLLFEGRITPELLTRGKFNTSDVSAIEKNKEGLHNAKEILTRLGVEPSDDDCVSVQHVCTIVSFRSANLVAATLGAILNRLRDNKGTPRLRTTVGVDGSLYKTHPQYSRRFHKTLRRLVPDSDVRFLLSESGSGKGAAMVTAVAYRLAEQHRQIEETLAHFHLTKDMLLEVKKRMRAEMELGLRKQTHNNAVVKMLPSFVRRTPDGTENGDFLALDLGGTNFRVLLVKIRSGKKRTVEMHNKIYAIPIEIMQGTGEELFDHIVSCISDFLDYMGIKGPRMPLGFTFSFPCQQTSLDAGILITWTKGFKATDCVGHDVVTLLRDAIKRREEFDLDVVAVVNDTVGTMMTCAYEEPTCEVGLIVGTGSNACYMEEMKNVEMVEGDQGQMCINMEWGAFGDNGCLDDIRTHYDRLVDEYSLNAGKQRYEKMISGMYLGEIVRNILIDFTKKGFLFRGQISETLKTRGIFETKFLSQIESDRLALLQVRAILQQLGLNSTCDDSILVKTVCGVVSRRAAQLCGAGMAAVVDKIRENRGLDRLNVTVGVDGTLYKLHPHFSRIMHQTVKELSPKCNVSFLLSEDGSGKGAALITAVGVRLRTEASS
Put plainly: HK1 enzyme activation by HKDC1 hits – biochemical, selectivity assay for HKDC1 activator project, dose response (AID 504762). Format: functional.

Assay [2] in a line: viability of PTEN-deleted HCT116 cells – cell-based, HCT116 PTEN knockout, dose response (AID 1047).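 Also: HCT116 colon tumor cells with PTEN knocked out; cells exposed to compound for 60 hours before readout; potency for loss of cell viability measured by luminescence.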 It counts as functional.
Assay [3] deals with Serine/threonine-protein kinase 17A (Homo sapiens, UniProt Q9UEE5). Format: functional.
In assay [4] the target is Non-receptor tyrosine-protein kinase TYK2 (Homo sapiens, UniProt P29597). Format: functional.
For assay [5], the target named is MAP kinase-interacting serine/threonine-protein kinase 2 (Homo sapiens, UniProt Q9HBH9). Format: functional.
Assay [6] addresses Mitogen-activated protein kinase 10 (Homo sapiens, UniProt P53779). Put plainly: Navigating the Kinome. Panel member name: MAPK10. It counts as functional.
The target of assay [7] is Inhibitor of nuclear factor kappa-B kinase subunit epsilon (Homo sapiens, UniProt Q14164). Put plainly: Navigating the Kinome. Panel member name: IKBKE. It counts as functional.
For assay [8], the target named is ALK tyrosine kinase receptor (Homo sapiens, UniProt Q9UM73). Format: functional.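 Also: ALK tested as one member of a kinase panel screen.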
In assay [9] the target is Tyrosine-protein kinase SYK (Homo sapiens, UniProt P43405). Format: functional.
Assay [10] is described as follows: THP-1 cell cytotoxicity, dose response, cytotoxicity control for non-replicating M. tuberculosis project (AID 489025). It counts as functional.
The target of the next assay is Nonstructural protein 1 (Influenza A virus, UniProt Q194T2). It counts as functional, Influenza A virus (A/California/07/2009(H1N1)).
In a further assay the target is Paired box protein Pax-8 (Homo sapiens, UniProt Q06710). Put plainly: PAX8 transcriptional activity inhibition in RMG-I – RMG-I cells, luciferase, cherry-pick, dose response (AID 687027).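 Also: luciferase reporter driven by Pax8 target thyroperoxidase promoter measured by SteadyGlo luminescence.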 It counts as functional, cell-based.
Assay [11] deals with T2, 1-phosphatidylinositol 4,5-bisphosphate phosphodiesterase gamma-1 (Homo sapiens, UniProt P19174).
T2 sequence (P19174 whole entry): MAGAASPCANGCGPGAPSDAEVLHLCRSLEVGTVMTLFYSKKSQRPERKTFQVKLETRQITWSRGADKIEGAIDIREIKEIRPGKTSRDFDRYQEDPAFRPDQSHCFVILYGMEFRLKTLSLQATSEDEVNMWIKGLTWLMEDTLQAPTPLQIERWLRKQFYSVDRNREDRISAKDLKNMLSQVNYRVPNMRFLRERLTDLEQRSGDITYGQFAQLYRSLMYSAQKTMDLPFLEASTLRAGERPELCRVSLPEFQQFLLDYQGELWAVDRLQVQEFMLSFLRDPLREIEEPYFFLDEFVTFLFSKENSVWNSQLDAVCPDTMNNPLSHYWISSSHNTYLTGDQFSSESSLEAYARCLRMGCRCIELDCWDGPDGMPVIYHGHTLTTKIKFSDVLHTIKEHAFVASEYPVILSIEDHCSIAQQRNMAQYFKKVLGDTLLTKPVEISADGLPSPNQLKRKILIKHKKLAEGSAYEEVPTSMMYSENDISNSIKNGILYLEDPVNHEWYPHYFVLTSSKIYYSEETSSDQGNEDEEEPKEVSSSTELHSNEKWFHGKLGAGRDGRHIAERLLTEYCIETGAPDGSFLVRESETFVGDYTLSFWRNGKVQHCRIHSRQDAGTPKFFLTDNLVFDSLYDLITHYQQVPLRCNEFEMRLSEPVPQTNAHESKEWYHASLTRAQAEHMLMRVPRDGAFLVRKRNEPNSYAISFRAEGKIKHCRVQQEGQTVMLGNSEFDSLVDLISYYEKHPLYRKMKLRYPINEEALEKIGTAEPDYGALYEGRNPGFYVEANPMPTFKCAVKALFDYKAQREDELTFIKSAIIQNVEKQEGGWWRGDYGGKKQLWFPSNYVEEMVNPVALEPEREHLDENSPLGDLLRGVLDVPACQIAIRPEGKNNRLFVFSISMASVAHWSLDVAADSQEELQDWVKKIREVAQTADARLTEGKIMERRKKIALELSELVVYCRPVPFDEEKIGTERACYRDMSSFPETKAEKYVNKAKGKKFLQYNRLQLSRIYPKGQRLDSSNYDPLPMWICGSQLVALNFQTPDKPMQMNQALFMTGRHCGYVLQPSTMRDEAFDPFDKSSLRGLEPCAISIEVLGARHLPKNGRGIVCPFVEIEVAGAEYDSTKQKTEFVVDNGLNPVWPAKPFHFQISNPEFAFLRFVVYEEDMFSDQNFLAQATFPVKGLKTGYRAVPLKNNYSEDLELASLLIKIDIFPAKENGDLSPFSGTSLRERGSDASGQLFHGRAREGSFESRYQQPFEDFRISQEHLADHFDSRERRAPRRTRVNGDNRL
Put plainly: Counterscreen for inhibitors of phospholipase C isozymes (PLC-B3): Fluorescence-based biochemical high throughput dose response assay to identify inhibitors of phospholipase C isozymes (PLC-gamma1).

Assay [12] in a line: loss of viability in HepG2 cells – cell-based, CellTiter-Glo, cherry-picked, cytotoxicity control for Shn3 inhibitor project, dose response (AID 624134). It counts as functional.

Active and inactive are the calls of the source.

Chain of MAP kinase-interacting serine/threonine-protein kinase 2 (Q9HBH9 whole entry): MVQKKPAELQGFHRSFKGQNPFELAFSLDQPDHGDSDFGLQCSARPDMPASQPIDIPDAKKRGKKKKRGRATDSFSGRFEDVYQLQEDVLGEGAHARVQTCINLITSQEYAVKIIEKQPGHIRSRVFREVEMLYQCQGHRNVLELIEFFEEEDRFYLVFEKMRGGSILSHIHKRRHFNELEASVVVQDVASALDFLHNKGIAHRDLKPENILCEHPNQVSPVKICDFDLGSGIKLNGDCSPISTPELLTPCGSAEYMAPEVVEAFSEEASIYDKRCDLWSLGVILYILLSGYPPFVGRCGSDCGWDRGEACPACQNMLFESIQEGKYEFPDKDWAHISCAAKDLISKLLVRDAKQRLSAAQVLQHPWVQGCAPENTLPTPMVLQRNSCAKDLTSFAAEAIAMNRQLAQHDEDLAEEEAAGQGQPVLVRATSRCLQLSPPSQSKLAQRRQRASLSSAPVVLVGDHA
Chain of Mitogen-activated protein kinase 10 (P53779 whole entry): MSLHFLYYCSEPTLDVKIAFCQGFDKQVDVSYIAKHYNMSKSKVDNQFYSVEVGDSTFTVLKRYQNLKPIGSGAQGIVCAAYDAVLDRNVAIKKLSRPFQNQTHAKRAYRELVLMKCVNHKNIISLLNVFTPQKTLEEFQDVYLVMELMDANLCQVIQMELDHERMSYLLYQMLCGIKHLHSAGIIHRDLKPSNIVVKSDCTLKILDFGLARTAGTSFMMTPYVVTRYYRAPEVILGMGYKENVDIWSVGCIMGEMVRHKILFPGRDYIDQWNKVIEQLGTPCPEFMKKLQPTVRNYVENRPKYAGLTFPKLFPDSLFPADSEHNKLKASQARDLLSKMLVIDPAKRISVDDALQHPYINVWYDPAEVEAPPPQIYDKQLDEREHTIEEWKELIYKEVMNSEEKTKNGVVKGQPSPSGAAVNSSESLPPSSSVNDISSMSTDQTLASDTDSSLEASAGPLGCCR
Chain of Paired box protein Pax-8 (Q06710 whole entry): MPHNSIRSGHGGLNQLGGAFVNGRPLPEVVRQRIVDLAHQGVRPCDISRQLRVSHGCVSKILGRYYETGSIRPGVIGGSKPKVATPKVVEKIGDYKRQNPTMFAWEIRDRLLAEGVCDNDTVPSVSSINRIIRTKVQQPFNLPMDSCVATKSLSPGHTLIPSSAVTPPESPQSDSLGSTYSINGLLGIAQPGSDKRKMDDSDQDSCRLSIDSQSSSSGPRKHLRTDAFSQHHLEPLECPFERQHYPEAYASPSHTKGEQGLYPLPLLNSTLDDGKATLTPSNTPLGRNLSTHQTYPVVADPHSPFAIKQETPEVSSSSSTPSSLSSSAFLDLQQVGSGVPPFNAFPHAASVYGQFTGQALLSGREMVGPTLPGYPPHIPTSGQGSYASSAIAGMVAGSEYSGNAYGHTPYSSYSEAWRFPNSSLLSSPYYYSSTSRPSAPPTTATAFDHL
Chain of Dual specificity mitogen-activated protein kinase kinase 2 (P36507 whole entry): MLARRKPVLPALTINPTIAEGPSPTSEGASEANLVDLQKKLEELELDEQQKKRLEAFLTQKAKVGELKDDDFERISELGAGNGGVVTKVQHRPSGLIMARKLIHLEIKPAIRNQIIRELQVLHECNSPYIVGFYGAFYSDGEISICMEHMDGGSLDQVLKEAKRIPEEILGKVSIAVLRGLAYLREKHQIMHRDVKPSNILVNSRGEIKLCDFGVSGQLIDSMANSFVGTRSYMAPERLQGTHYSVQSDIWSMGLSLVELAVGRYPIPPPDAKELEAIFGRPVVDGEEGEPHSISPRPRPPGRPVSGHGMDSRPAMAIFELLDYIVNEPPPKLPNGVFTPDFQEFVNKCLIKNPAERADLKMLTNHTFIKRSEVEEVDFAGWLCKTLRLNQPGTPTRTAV
Chain of Non-receptor tyrosine-protein kinase TYK2 (P29597 whole entry): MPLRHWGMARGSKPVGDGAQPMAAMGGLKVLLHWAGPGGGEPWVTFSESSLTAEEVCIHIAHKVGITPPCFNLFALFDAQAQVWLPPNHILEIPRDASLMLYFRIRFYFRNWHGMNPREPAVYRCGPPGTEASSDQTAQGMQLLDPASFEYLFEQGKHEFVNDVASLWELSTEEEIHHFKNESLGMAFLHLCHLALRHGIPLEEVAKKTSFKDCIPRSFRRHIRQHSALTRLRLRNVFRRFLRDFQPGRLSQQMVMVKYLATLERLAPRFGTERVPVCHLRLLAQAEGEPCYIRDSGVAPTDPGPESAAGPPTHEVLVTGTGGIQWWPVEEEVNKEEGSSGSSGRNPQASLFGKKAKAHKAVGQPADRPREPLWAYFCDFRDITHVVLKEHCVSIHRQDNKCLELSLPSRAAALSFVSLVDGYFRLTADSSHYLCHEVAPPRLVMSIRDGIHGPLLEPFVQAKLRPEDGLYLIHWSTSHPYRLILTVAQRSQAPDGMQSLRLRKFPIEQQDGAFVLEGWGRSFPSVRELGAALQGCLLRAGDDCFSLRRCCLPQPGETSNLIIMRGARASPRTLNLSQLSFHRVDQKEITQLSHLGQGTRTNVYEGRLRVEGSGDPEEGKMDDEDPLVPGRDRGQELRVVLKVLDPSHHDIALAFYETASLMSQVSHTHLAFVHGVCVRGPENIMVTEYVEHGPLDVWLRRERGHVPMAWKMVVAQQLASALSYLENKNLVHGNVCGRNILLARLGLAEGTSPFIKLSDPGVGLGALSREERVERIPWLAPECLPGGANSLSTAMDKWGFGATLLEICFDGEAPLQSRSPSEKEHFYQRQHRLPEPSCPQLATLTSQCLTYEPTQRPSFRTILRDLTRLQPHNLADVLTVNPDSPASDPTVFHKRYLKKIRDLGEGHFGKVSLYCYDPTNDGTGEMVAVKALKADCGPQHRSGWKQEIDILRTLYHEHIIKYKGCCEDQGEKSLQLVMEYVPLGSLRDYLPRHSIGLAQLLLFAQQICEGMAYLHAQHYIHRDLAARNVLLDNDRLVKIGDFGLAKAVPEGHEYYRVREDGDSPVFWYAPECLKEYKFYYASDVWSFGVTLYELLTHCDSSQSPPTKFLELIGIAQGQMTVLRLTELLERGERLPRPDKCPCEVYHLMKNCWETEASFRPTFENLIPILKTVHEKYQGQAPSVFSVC
Chain of Serine/threonine-protein kinase 17A (Q9UEE5 whole entry): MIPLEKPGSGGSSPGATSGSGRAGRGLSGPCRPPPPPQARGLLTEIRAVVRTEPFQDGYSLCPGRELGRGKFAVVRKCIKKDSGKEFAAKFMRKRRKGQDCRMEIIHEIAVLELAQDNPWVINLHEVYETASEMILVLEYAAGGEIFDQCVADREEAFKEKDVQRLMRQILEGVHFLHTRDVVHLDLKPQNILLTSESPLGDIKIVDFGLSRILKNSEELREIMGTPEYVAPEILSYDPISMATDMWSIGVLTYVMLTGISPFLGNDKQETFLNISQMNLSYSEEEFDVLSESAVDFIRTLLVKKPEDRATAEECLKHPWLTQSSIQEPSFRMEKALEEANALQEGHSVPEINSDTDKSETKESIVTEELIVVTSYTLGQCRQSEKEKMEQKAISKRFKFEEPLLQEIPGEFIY
Chain of ALK tyrosine kinase receptor (Q9UM73 whole entry): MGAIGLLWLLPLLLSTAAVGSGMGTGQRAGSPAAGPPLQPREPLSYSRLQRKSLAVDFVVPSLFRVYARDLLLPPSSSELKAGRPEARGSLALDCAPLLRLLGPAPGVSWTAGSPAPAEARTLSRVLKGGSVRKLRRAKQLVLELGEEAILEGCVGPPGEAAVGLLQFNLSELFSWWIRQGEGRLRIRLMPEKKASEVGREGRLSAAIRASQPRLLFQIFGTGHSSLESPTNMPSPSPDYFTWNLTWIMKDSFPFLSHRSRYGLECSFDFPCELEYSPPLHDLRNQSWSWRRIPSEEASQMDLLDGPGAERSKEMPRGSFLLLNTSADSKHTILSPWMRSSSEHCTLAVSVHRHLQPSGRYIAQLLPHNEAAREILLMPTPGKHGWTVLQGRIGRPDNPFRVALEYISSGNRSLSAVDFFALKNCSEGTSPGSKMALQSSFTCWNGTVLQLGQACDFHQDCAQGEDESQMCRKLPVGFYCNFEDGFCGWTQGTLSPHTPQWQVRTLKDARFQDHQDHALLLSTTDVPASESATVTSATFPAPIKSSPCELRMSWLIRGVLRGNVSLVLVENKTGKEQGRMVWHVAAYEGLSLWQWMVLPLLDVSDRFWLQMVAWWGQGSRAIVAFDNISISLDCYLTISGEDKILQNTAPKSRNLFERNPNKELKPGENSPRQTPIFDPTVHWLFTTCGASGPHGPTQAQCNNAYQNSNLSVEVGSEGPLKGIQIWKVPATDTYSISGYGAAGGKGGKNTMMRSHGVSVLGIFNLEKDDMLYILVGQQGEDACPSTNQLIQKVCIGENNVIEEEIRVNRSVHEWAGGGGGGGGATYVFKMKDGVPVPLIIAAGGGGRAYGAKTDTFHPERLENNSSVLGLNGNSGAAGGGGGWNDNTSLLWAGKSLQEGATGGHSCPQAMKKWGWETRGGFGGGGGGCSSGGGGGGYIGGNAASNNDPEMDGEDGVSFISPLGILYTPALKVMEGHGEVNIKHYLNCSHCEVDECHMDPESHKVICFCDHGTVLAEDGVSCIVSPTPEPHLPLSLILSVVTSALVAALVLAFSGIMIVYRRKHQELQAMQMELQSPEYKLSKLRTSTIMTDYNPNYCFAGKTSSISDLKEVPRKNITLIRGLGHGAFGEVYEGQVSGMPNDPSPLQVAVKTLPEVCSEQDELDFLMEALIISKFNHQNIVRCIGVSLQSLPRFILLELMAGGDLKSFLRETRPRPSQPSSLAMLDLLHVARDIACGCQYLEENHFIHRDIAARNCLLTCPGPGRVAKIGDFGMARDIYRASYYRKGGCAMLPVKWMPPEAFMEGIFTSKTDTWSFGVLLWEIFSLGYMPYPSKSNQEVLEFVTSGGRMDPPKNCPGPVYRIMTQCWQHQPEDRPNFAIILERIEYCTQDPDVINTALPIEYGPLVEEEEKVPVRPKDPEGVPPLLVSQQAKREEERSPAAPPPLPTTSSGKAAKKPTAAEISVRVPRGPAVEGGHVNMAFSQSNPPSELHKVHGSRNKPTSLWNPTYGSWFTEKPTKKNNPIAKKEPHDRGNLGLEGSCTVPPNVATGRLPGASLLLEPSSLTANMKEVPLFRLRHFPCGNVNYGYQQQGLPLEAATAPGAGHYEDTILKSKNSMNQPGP

On to `COc1cc2c(cc1F)C(c1ccccc1Cl)=Nc1c(n[nH]c1C)N2` [RG-1530], for which the Ki in assay [1] was 2.51 µM (active).
On to `O=C(O)c1ccc(NC2=C(Cl)C(=O)c3ccccc3C2=O)cc1`, for which, on Hexokinase-1, the EC50 is 10.6 µM (active).
Consider `O=C(O)c1ccc2c3c(ncnc13)-c1ccccc1C2=O`, for which the EC50 in [2] was 16.1 µM (active).
As for `Cc1ccc2nccc(NC(=O)Nc3cccc(C(F)(F)F)n3)c2c1`, the Ki in [3] was > 3.98 µM (inactive); in assay [4] it was > 2 µM (inactive); in assay [5], > 10 µM (inactive); in assay [6] it was > 3.16 µM (inactive); in assay [7] it was > 3.16 µM (inactive); in [8], > 3.98 µM (inactive). In addition, the Ki in [9] is > 1.58 µM (inactive).
`COC(=O)CCS(=O)(=O)c1nc(-c2ccccc2)cc(C(F)(F)F)n1`: the cytotoxic concentration (CC50) in assay [10] is 25.2 µM (active).
`Cc1c(/N=C2\C=CC(=O)c3ccccc32)c(=O)n(-c2ccccc2)n1C`: on Nonstructural protein 1, the IC50 was 28.7 µM (active).
Turning to `CCOC(=O)c1c2c(n(Cc3ccccc3)c1C)C(=O)C(=O)c1ccccc1-2`, the AC50 on Paired box protein Pax-8 is 1.98 µM (active); in assay [12] it was 6.74 µM (active). Also, the IC50 in assay [11] is 28.3 µM (inactive).
